Data from ChEMBL document CHEMBL1138916, “Design and synthesis of the first generation of dithiolane thiazolidinedione- and phenylacetic acid-based PPARgamma agonists” (J Med Chem, 2006).
≈ marks a conversion by molar mass, not a printed value. Where “and” joins values, the source holds several entries; their conditions need not be identical. Identical values can stand only once. Calls of active or inactive are those of the source. The rule behind the calls is not given here.

Assays:
[1] = biological target: T1, Peroxisome proliferator-activated receptor gamma (Homo sapiens) (UniProt P37231); test: Transactivation of PPARgamma at 10 uM in CV1 cells; assay type: functional, cell-based; conditions: CV-1
T1 sequence (whole entry): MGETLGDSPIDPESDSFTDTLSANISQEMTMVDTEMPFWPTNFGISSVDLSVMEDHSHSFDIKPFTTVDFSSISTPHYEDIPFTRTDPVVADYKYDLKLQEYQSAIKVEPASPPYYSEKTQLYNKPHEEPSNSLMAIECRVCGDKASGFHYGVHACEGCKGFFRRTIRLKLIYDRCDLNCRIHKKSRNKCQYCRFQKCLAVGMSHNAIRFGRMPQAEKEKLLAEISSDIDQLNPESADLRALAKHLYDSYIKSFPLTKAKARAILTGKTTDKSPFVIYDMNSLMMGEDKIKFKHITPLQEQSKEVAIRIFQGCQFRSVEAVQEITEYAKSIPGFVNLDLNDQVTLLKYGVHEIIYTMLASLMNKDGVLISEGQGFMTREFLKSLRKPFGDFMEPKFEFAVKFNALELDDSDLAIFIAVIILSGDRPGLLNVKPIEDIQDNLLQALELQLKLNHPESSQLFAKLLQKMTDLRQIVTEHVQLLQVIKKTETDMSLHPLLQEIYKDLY

[2] = biological target: T2, Peroxisome proliferator-activated receptor gamma (Homo sapiens, UniProt P37231)
T2 sequence (P37231 whole entry): T1 sequence (whole entry)
Description: Transactivation of PPARgamma in CV1 cells

[3] = biological target: T1, Peroxisome proliferator-activated receptor gamma (Homo sapiens); test: Transactivation of PPARgamma up to 30 uM in CV1 cells; assay type: functional, cell-based; conditions: CV-1
T-cell [4] = test: Inhibition of PHA/PMA-induced IL2 production in human T lymphocytes; assay type: functional
T-cell [5] = test: Inhibition of PHA/PMA-induced IL2 production in human T lymphocytes at 10 uM; assay type: functional, cell-based
3T3-L1 = test: Induction of adipogenesis in mouse 3T3 L1 preadipocytes; assay type: functional, cell-based
Keratinocyte = test: Antiproliferative activity against human keratinocytes; assay type: functional, cell-based
HT-29 = test: Antiproliferative activity against human HT29 cell line; assay type: functional, cell-based
MCF7 = test: Antiproliferative activity against human MCF7 cell line; assay type: functional, cell-based
Rattus norvegicus [6] = test: Reduction in glucose level in Zucker fa/fa rat at 100 mg/kg relative to control; assay type: functional
Rattus norvegicus [7] = test: Reduction in triglycerides level in Zucker fa/fa rat at 100 mg/kg relative to control; assay type: functional; set-up: scale not given: the % may be the effect or the level left
[8] = Solubility in water; assay type: physicochemical

For `CC(=O)SC(CCCCC(=O)N(C)CCOc1ccc(CC2SC(=O)NC2=O)cc1)CCSC(=O)CN` (stereo unspecified), which Activity [1] is on record?
The Activity was 138.

And the EC50 [2]?
Its EC50 is 0.195 µM.

Which EC50 [2] does the source give for `CN(CCCCC1CCSS1)CCOc1ccc(CC2SC(=O)NC2=O)cc1` (stereo unspecified) [listing 1 of 3 here] here?
The EC50 was 28 µM.

Which Activity [3] does the source give for `CN(CCOc1ccc(CC(=O)O)cc1Cl)C(=O)CCCCC1CCSS1` (stereo unspecified) here?
Its Activity is “inactive”.

With `CN(CCOc1ccc(CC2SC(=O)NC2=O)cc1)C(=O)CCCCC(S)CCS` (stereo unspecified) as the compound, how does the Activity [1] read?
Its Activity is 129.

And the Inhibition (T-cell [4])?
The Inhibition was 80%.

And the Activity (T-cell [5])?
Its Activity is “Active”.

What about the EC50 [2] of the same compound?
Its EC50 is 0.075 µM.

With `CN(CCOc1ccc(CC2SC(=O)NC2=O)cc1)C(=O)CCCCC(CCSC(=O)CN)SC(=O)CN.Cl.Cl` (stereo unspecified) as the compound, how does the Activity [1] read?
The Activity was 71.

What about the Inhibition (T-cell [4]) of the same compound?
The Inhibition was 92%.

What about the Activity (T-cell [5]) of the same compound?
The Activity was “Active”.

What about the Activity (3T3-L1) of the same compound?
The Activity was “Active”.

What about the IC50 (Keratinocyte) of the same compound?
Its IC50 is 1 µM.

What about the IC50 (HT-29) of the same compound?
Its IC50 is 8 µM.

What about the IC50 (MCF7) of the same compound?
Its IC50 is 25 µM.

And the EC50 [2]?
Its EC50 is 0.06 µM.

Which EC50 [2] does the source give for `CN(CCCCC1CCSS1)CCOc1ccc(CC2SC(=O)NC2=O)cc1` (stereo unspecified) [listing 2 of 3 here] here?
The EC50 was 11.1 µM.

For `CN(CCCCC1CCSS1)CCOc1ccc(CC2SC(=O)NC2=O)cc1` (stereo unspecified) [listing 3 of 3 here], which EC50 [2] is on record?
The EC50 was 11.1 µM.

Which Activity [3] does the source give for `CN(CCOc1ccc(CC2SC(=O)NC2=O)cc1)C(=O)CCC1CCSS1` (stereo unspecified) here?
The Activity was “inactive”.

Which EC50 [2] does the source give for `CN(CCCOc1ccc(CC(=O)O)cc1Cl)C(=O)CCCCC1CCSS1` (stereo unspecified) here?
The EC50 was 12.3 µM.

With `CN(CCOc1ccc(CC2SC(=O)NC2=O)cc1)C(=O)CCCCC(CCSC(=O)CCC(=O)O)SC(=O)CCC(=O)O` (stereo unspecified) as the compound, how does the Activity [1] read?
The Activity was 60.

And the EC50 [2]?
The EC50 was 0.08 µM.

For `CN(C(=O)CCCCC1CCSS1)c1ccc(CC2SC(=O)NC2=O)cc1` (stereo unspecified), which Activity [3] is on record?
The Activity was “inactive”.

With `COC(=O)Cc1ccc(OCCN(C)C(=O)CCCCC2CCSS2)c(Cl)c1` (stereo unspecified) as the compound, how does the Activity [3] read?
The Activity was “inactive”.

For `CN(CCOc1ccc(CC2SC(=O)NC2=O)cc1)C(=O)CCCCC1CCSS1` (stereo unspecified), which Inhibition (T-cell [4]) is on record?
The Inhibition was 92%.

And the Activity (T-cell [5])?
Its Activity is “Active”.

What about the Activity (3T3-L1) of the same compound?
Its Activity is “Active”.

What about the IC50 (Keratinocyte) of the same compound?
The IC50 was 0.6 µM.

And the IC50 (HT-29)?
Its IC50 is 10 µM.

And the IC50 (MCF7)?
Its IC50 is 15 µM.

And the Activity (Rattus norvegicus [6])?
Its Activity is 180 mg/dL.

What about the Activity (Rattus norvegicus [7]) of the same compound?
Its Activity is 83% and 54 mg/dl.

What about the solubility [8] of the same compound?
The solubility was 39 µg/mL (≈ 83.2 µM).

And the EC50 [2]?
The EC50 was 0.015 µM.

With `CC(=O)SC(CCCCC(=O)N(C)CCOc1ccc(CC2SC(=O)NC2=O)cc1)CCSC(=O)CCC(=O)O` (stereo unspecified) as the compound, how does the Activity [1] read?
The Activity was 168.

What about the EC50 [2] of the same compound?
Its EC50 is 0.15 µM.

Which EC50 [2] does the source give for `COC(=O)Cc1ccc(OCCCN(C)C(=O)CCCCC2CCSS2)c(Cl)c1` (stereo unspecified) here?
Its EC50 is 18.5 µM.

With `O=C(CCCCC1CCSS1)NCCOc1ccc(CC2SC(=O)NC2=O)cc1` (stereo unspecified) as the compound, how does the EC50 [2] read?
Its EC50 is 10 µM.

Which Activity [1] does the source give for `CC(=O)SCCC(CCCCC(=O)N(C)CCOc1ccc(CC2SC(=O)NC2=O)cc1)SC(C)=O` (stereo unspecified) here?
The Activity was 150.

And the EC50 [2]?
The EC50 was 0.039 µM.

For `CN(CCOc1ccc(CC2SC(=O)NC2=O)cc1)C(=O)CCCCC(S)CCSC(=O)CCC(=O)O` (stereo unspecified), which Activity [1] is on record?
The Activity was 177.

What about the EC50 [2] of the same compound?
Its EC50 is 0.02 µM.

For `CN(CCOc1ccc(CC2SC(=O)NC2=O)cc1)c1ccccn1` (stereo unspecified) [ROSIGLITAZONE], which Inhibition (T-cell [4]) is on record?
The Inhibition was 75%.

What about the IC50 (Keratinocyte) of the same compound?
Its IC50 is 8 µM.

And the IC50 (HT-29)?
The IC50 was 45 µM.

What about the IC50 (MCF7) of the same compound?
The IC50 was over 50 µM.
